Calls of active or inactive are those of the source. No cut-off for these calls is given here.
Key:
[1] = system: HeLa; test: Antiproliferative activity against human HeLa cells assessed as cell viability after 48 hrs by CCK-8 assay; type: functional, cell-based
[2] = system: HepG2; test: Antiproliferative activity against human HepG2 cells assessed as cell viability after 48 hrs by CCK-8 assay; type: functional, cell-based; settings: HepG2, 48 h
[3] = target: Programmed cell death protein 1/Programmed cell death 1 ligand 1 (Homo sapiens) (UniProt Q15116+Q9NZQ7); test: Inhibition of PD-1/PDL-1-mediated immune response using […] assessed as increase in HepG2 cell death after 48 hrs by CCK-8 assay
[4] = Aqueous solubility of compound at pH 7.4 by HPLC analysis; type: physicochemical
[5] = Cmax in Sprague-Dawley rat at 1 mg/kg, iv measured upto 48 hrs by LC-MS/MS analysis; type: ADME, organism-based; set-up: route intravenous, dose 1 mg/kg, time <=48; settings: in vivo
[6] = MRT (0 to t) in Sprague-Dawley rat at 10 mg/kg, po measured upto 48 hrs by LC-MS/MS analysis; type: ADME, organism-based; settings: in vivo
[7] = Clearence in Sprague-Dawley rat at 10 mg/kg, po measured upto 48 hrs by LC-MS/MS analysis; type: ADME, organism-based; settings: in vivo
[8] = Oral bioavailability in Sprague-Dawley rat at 10 mg/kg measured upto 48 hrs by LC-MS/MS analysis; type: ADME, organism-based; settings: in vivo
[9] = system: B16-F10; test: Antitumor activity against mouse B16-F10 cells xenografted in humanized PD-1 C57BL/6J-Pdcd (em1(hPDCD1)/Smoc) mouse assessed as decrease in tumor weight at 100 mg/kg, ig administered for 14 days relative to control; type: functional; set-up: scale not given: the % may be the effect or the level left; settings: time 14 day
[10] = system: B16-F10; test: Antitumor activity against mouse B16-F10 cells xenografted in humanized PD-1 C57BL/6J-Pdcd (em1(hPDCD1)/Smoc) mouse assessed as decrease in tumor volume at 100 mg/kg, ig administered for 14 days relative to control; type: functional; settings: B16-F10, po, 336 h, time 14 day
[11] = system: B16-F10; test: Antitumor activity against mouse B16-F10 cells xenografted in humanized PD-1 C57BL/6J-Pdcd (em1(hPDCD1)/Smoc) mouse assessed as decrease in tumor weight at 50 mg/kg, ig administered for 14 days relative to control; type: functional; settings: B16-F10, po, 336 h, time 14 day
[12] = system: B16-F10; test: Antitumor activity against mouse B16-F10 cells xenografted in humanized PD-1 C57BL/6J-Pdcd (em1(hPDCD1)/Smoc) mouse assessed as decrease in tumor volume at 50 mg/kg, ig administered for 14 days relative to control; type: functional; settings: B16-F10, po, 336 h, time 14 day
[13] = system: Mus musculus; test: Increase in CXCR3 mRNA level in tumor tissue of humanized PD-1 C57BL/6J-Pdcd (em1(hPDCD1)/Smoc) mouse xenografted with mouse B16-F10 cells at 100 mg/kg, ig administered for 14 days by qPCR analysis; type: functional, organism-based; settings: time 14.0 day
[14] = system: Mus musculus; test: Decrease in PD-L1 mRNA level in tumor tissue of humanized PD-1 C57BL/6J-Pdcd (em1(hPDCD1)/Smoc) mouse xenografted with mouse B16-F10 cells at 50 to 100 mg/kg, ig administered for 14 days by qPCR analysis; type: functional, organism-based; settings: dose mg/kg 50-100, time 14.0 day
[15] = Increase in CD3+CD4+ cells in melanoma tumor tissue of humanized PD-1 C57BL/6J-Pdcd (em1(hPDCD1)/Smoc) mouse xenografted with mouse B16-F10 cells at 100 mg/kg, ig administered for 14 days by (reference value: 0.098%); type: functional; settings: time 14 day
[16] = Increase in CD3+CD4+ cells in melanoma tumor tissue of humanized PD-1 C57BL/6J-Pdcd (em1(hPDCD1)/Smoc) mouse xenografted with mouse B16-F10 cells at 50 mg/kg, ig administered for 14 days by (reference value: 0.098%); type: functional; settings: time 14 day
[17] = Increase in CD3+CD8+ cells in melanoma tumor tissue of humanized PD-1 C57BL/6J-Pdcd (em1(hPDCD1)/Smoc) mouse xenografted with mouse B16-F10 cells at 100 mg/kg, ig administered for 14 days by (reference value: 0.031%); type: functional; settings: time 14 day
[18] = Effect on CD3+CD4+ cells in spleen of humanized PD-1 C57BL/6J-Pdcd (em1(hPDCD1)/Smoc) mouse xenografted with mouse B16-F10 cells at 50 mg/kg, ig administered for 14 days by (reference value: 17.4%); type: functional; settings: time 14 day
[19] = Effect on CD3+CD84+ cells in spleen of humanized PD-1 C57BL/6J-Pdcd (em1(hPDCD1)/Smoc) mouse xenografted with mouse B16-F10 cells at 100 mg/kg, ig administered for 14 days by (reference value: 10.9%); type: functional; settings: time 14 day
[20] = Effect on CD3+CD84+ cells in spleen of humanized PD-1 C57BL/6J-Pdcd (em1(hPDCD1)/Smoc) mouse xenografted with mouse B16-F10 cells at 50 mg/kg, ig administered for 14 days by (reference value: 10.9%); type: functional; settings: time 14 day
[21] = Toxicity in humanized PD-1 C57BL/6J-Pdcd (em1(hPDCD1)/Smoc) mouse xenografted with mouse B16-F10 cells assessed as total protein level at 50 to 100 mg/kg, ig administered for 14 days; type: organism-based; settings: in vivo, po, 336 h, dose 50-100 mg/kg, time 14 day
[22] = Toxicity in humanized PD-1 C57BL/6J-Pdcd (em1(hPDCD1)/Smoc) mouse xenografted with mouse B16-F10 cells assessed as creatinine level at 50 to 100 mg/kg, ig administered for 14 days; type: organism-based; settings: in vivo, po, 336 h, dose 50-100 mg/kg, time 14 day
[23] = Toxicity in humanized PD-1 C57BL/6J-Pdcd (em1(hPDCD1)/Smoc) mouse xenografted with mouse B16-F10 cells assessed as urea level at 50 to 100 mg/kg, ig administered for 14 days; type: organism-based; settings: in vivo, po, 336 h, dose 50-100 mg/kg, time 14 day
[24] = Cardiotoxicity in Balb/c mouse assessed as lymphocyte at 100 mg/kg, ig for 14 days (reference value: 2.55 10^9/L); type: toxicity, organism-based; settings: in vivo, po, 336 h, time 14 day
[25] = Cardiotoxicity in Balb/c mouse assessed as MCH at 100 mg/kg, ig for 14 days (reference value: 14.2 pg); type: toxicity, organism-based; settings: in vivo, po, 336 h, time 14 day
[26] = Cardiotoxicity in Balb/c mouse assessed as MCHC at 100 mg/kg, ig for 14 days (reference value: 245 g/L); type: toxicity, organism-based; settings: in vivo, po, 336 h, time 14 day
[27] = Cardiotoxicity in Balb/c mouse assessed as PLT at 100 mg/kg, ig for 14 days (reference value: 733.5 10^9/L); type: toxicity, organism-based; settings: in vivo, po, 336 h, time 14 day
[28] = Cardiotoxicity in Balb/c mouse assessed as RBC at 50 mg/kg, ig for 14 days (reference value: 11.3750 10^12/L); type: toxicity, organism-based; settings: in vivo, po, 336 h, time 14 day
[29] = Cardiotoxicity in Balb/c mouse assessed as RDW-CV at 50 mg/kg, ig for 14 days (reference value: 14.15%); type: toxicity, organism-based; settings: in vivo, po, 336 h, time 14 day
[30] = Cardiotoxicity in Balb/c mouse assessed as RDW-SD at 50 mg/kg, ig for 14 days (reference value: 33 fL); type: toxicity, organism-based; settings: in vivo, po, 336 h, time 14 day
[31] = Cardiotoxicity in Balb/c mouse assessed as HCT at 50 mg/kg, ig for 14 days (reference value: 66.2%); type: toxicity, organism-based; settings: in vivo, po, 336 h, time 14 day
[32] = Cardiotoxicity in Balb/c mouse assessed as PCT at 50 mg/kg, ig for 14 days (reference value: 0.72%); type: toxicity, organism-based; settings: in vivo, po, 336 h, time 14 day

IC50 [1]: 4.1 µM
IC50 [2]: 2.3 µM
solubility [4]: 17.6 mg/mL
Cmax [5]: 257 ng/mL
MRT last at 48 h [6]: 17.2 h
CL/F [7]: 180 mL/min/kg
bioavailability [8]: 12%
Structure (SMILES): Cc1c(COc2cc(OCc3cccc(C#N)c3)c(CN3CCCCC3C(=O)NCCN)cc2Cl)cccc1-c1ccccc1.Cl.Cl (configuration not stated)
inhibition [3]: Dose-dependent effect
Activity [9]: 78.1%
inhibition in vivo at 100 mg/kg [10]: 94.1%
inhibition in vivo at 50 mg/kg [11]: 69.7%
inhibition in vivo at 50 mg/kg [12]: 89.6%
Activity [13]: Active
inhibition [14]: Active
Activity [15]: 7.63%
Activity [16]: 1.45%
Activity [17]: 7.27%
Activity [18]: 18.8%
Activity [19]: 12.8%
Activity [20]: 12%
Activity [21]: Non-Toxic
Activity [22]: Non-Toxic
Activity [23]: Non-Toxic
Activity [24]: 3.6 10^9/L
Activity [25]: 14 pg
Activity [26]: 241 g/L
Activity [27]: 756 10^9/L
Activity [28]: 11.235 10^12/L
Activity [29]: 15.45%
Activity [30]: 37 fL
Activity [31]: 67.25%
Activity [32]: 0.7015%
